Patent US20250179028A1, “ACRYLAMIDE COMPOUNDS” (NRG THERAPEUTICS LTD, priority 2022, published 2025)

Legend:
mPTP = mPTP activity (Ca2+ retention) assay in isolated rat liver mitochondria; assay type: biochemical; details: isolated rat liver mitochondria; average value from multiple experiments (n ≥ 2)
Description: Pharmacological inhibition or modulation of the mPTP can be measured in well characterised ‘Ca^2+ retention’ assays performed in isolated mitochondria. In vitro isolated mitochondria rapidly sequester exogenous Ca^2+ until the intramitochondrial Ca^2+ concentration reaches the threshold for mPTP activation. Once the pore is activated, mitochondrial integrity is compromised and the stored Ca^2+ is released. The distribution of Ca^2+ between extra- and intra-mitochondrial compartments can be measured in real time with the use of membrane-impermeant Ca^2+ sensitive fluorescent dyes. Depending on the configuration of the assay, inhibition or modulation of the mPTP either delays the opening of the pore or increases the concentration of Ca^2+ required to induce mPTP opening.
MPTP activity was measured in mitochondria freshly isolated from female Sprague Dawley (250 to 300 gram) rat livers using the following method. Cervical dislocation was performed on the rat. The liver was then perfused in-situ with ˜40 ml cold Dulbecco's Phosphate Buffered Saline (DPBS) prior to dissection and transferred into 30 ml Isolation Buffer (250 mM Sucrose, 10 mM KCl, 1 mM EGTA, 1 mM EDTA, 25 mM HEPES, adjusted to pH 7.5 with 1 M NaOH). Each lobe of the liver was then removed from the buffer, minced using tweezers and a scalpel into ˜5 mm pieces then transferred into a 50 ml Potterton dounce homogenization tube on ice containing 30 ml ice-cold centrifugation buffer (300 mM Trehalose, 25 mM HEPES, 1 mM EGTA, 1 mM EDTA, 10 mM KCl, adjusted to pH 7.5 with 1 M NaOH and supplemented with 0.1% bovine serum albumin (BSA) and complete protease inhibitor cocktail (one tablet of inhibitor per 50 mls of buffer). Homogenisation was carried out using a teflon pestle at 1800 rpm. The slurry was centrifuged at 800 g for 10 min at 4° C., then the supernatant centrifuged at 10,000 g for 10 min. The pellet was washed once with FLIPR assay buffer (75 mM Mannitol, 25 mM Sucrose, 5 mM Potassium Phosphate Monobasic, 20 mM Tris base, 100 mM KCl, 0.1% BSA adjusted to pH 7.4 with 5M HCl) centrifuged again, then resuspended in FLIPR assay buffer to a concentration of 8.8 mg/ml protein.
Tested compounds (10 mM stock in DMSO) were serially diluted in DMSO in half log steps to generate 10 test concentrations (final concentrations in assay 30 μM to 1 nM). An intermediate dilution of 5 μl DMSO samples into 247 μl FLIPR assay buffer was carried out prior to transfer of 5 μl into duplicate wells of a 384 well polypropylene assay plate. Control wells were 0.5% (v/v) DMSO and 5 μM cyclosporin A.
A stock mitochondria/Fluo5N assay solution was prepared in 5.6 ml FLIPR assay buffer (at RT) supplemented with succinate disodium salt (10 mM), rotenone (1 μM), Fluo5N pentapotassium salt (2 μM) and 1 ml mitochondria suspension, then transferred (15 μl) into the assay plate containing test compounds and incubated for 10 min at RT. Assay plates were then transferred to a FLIPR Tetra plate reader (Molecular Devices). Dye fluorescence was then measured every 3 sec for a total of 10 min. After 12 sec, a 2.5 μl bolus of CaCl2 (75 μM) was added from a source plate containing 675 μM CaCl2 in FLIPR assay buffer. IC50 values for tested compounds were calculated using the fluorescence value collected at the 10 min timepoint with % inhibition calculated using the DMSO control and cyclosporin A values as […] respectively.

CYP2D6 = CYP2D6 (Homo sapiens (Human), UniProt P10635); assay: Cytochrome P450 CYP2D6 inhibition in human liver microsomes; assay type: in vitro ADME; details: probe dextromethorphan 2 µM (dextrorphan formation); 1 uM test compound, human liver microsomes; average value from two experiments; negative values = no effective inhibition
Description: Studies to assess tested compound mediated inhibition of cytochrome P450 enzyme isoform CYP2D6 were performed using human liver microsomes (BD Gentest) using either a single concentration (1 μM) of test compound or concentration response (0.1, 0.3, 1, 3, 10 and 30 μM) to derive an IC50. Tested compound solutions were prepared from 10 mM stocks in DMSO and diluted to 200 μM in DMSO. Reactions were prepared in a 96 deep well plate by combining 1 μl test compound with 179 μl reaction mixture (100 mM phosphate buffered saline (PBS), 0.2 mg/mL microsomes and 2 μM Dextromethorphan prepared from stocks as detailed below).
The positive control inhibitor, quinidine, was used at a final concentration of 0.5 μM when used at a single concentration. The final concentrations of quinidine used to derive an IC50 were 0, 0.1, 0.3, 1, 3, 10 and 30 μM. Plates were warmed at 37° C. for 15 min before starting reactions with 20 μl 10 mM NADPH solution in PBS and incubated for 20 min at 37° C. The assay is performed in duplicate. Reactions were quenched with 200 μl cold acetonitrile containing internal standards (200 nM labetalol, 200 nM alprazolam and 100 nM tolbutamide). The plate was centrifuged at 4000 rpm for 30 minutes, placed on ice for 20 minutes and then centrifuged at 4000 rpm for 30 minutes again to precipitate protein. 100 μL of the supernatant was transferred to a new plate and diluted with 100 μL pure water before being analysed using UPLC/MS/MS. The products of the transformation for dextromethorphan to dextrorphan was monitored by UPLC-MS/MS. The inhibition of CYP2D6 in human liver microsomes was measured as the percentage decrease in the activity of dextrorphan formation compared to non-inhibited controls (=100% activity). The IC50 value was calculated (test compound concentration which produces 50% inhibition) by using Excel Xlfit.

CYP2D6, sequence (P10635 whole entry, canonical isoform): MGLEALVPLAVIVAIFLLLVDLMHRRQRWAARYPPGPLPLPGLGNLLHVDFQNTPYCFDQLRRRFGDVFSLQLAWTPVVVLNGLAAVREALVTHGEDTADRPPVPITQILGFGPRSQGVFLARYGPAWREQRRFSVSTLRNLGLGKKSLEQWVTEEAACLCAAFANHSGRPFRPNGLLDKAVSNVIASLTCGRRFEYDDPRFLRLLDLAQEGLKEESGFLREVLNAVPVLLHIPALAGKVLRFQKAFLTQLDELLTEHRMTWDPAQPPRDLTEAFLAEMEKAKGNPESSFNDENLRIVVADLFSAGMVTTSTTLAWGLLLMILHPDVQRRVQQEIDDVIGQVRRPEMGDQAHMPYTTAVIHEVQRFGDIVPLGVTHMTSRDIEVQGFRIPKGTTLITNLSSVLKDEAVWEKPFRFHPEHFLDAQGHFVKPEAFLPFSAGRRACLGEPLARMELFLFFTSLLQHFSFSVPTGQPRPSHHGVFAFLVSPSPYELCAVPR

Compound | mPTP Rat liver pIC50 (mPTP) | inhibition at 20 min, 1 µM (CYP2D6)
Cc1c(F)cccc1NC(=O)/C=C/c1ccc2sc(=O)[nH]c2c1 [Example 2, (E)-N-(3-fluoro-2-methylphenyl)-3-(2-oxo-2,3-dihydrobenzo[d]thiazol-5-yl)acrylamide] | 6.0 | –
O=C(/C=C/c1ccc2oc(=O)[nH]c2c1)NC1CCc2ccccc21 (centres unmarked) [Example 11, (E)-N-(2,3-dihydro-1H-inden-1-yl)-3-(2-oxo-2,3-dihydrobenzo[d]oxazol-5-yl)acrylamide] | 6.1 | -0.63%
Cc1ccccc1NC(=O)/C=C/c1ccc2oc(=O)[nH]c2c1 [Example 12, (E)-3-(2-oxo-2,3-dihydrobenzo[d]oxazol-5-yl)-N-(o-tolyl)acrylamide] | 6.5 | 3.05%
Cc1cc(F)c(F)cc1NC(=O)/C=C/c1ccc2oc(=O)[nH]c2c1 [Example 16, (E)-N-(4,5-difluoro-2-methylphenyl)-3-(2-oxo-2,3-dihydrobenzo[d]oxazol-5-yl)acrylamide] | 6.8 | 1.72%
Cn1c(=O)[nH]c2cc(/C=C/C(=O)NC3CCc4ccccc43)ccc21 (centres unmarked) [Example 24, (E)-N-(2,3-dihydro-1H-inden-1-yl)-3-(1-methyl-2-oxo-2,3-dihydro-1H-benzo[d]imidazol-5-yl)acrylamide] | 6.1 | 0.77%
Cc1cccc(C)c1NC(=O)/C=C/c1ccc2c(C)n[nH]c2c1 [Example 31, (E)-N-(2,6-dimethylphenyl)-3-(3-methyl-1H-indazol-6-yl)acrylamide] | 7.7 | 19.9%
CCc1n[nH]c2cc(/C=C/C(=O)NC3CCc4ccccc43)ccc12 (centres unmarked) [Example 32, (E)-N-(2,3-dihydro-1H-inden-1-yl)-3-(3-ethyl-1H-indazol-6-yl)acrylamide] | 6.6 | 4.01%
O=C(/C=C/c1ccc2c(C3CC3)n[nH]c2c1)NC1CCc2ccccc21 (centres unmarked) [Example 33, (E)-3-(3-cyclopropyl-1H-indazol-6-yl)-N-(2,3-dihydro-1H-inden-1-yl)acrylamide] | 6.3 | -0.55%
Cc1n[nH]c2cc(/C=C/C(=O)NC3CCc4ccccc43)cc(F)c12 (centres unmarked) [Example 34, (E)-N-(2,3-dihydro-1H-inden-1-yl)-3-(4-fluoro-3-methyl-1H-indazol-6-yl)acrylamide] | 6.7 | 4.37%
Cc1n[nH]c2cc(/C=C/C(=O)N[C@@H]3CCCC[C@H]3C)ccc12 [Example 43, (E)-3-(3-methyl-1H-indazol-6-yl)-N-((1R,2R)-2-methylcyclohexyl)acrylamide] | 6.3 | –
CC1Cc2ccccc2C1NC(=O)/C=C/c1ccc2c(c1)[nH]c(=O)n2C (centres unmarked) [Example 45, (E)-N-(2-methyl-2,3-dihydro-1H-inden-1-yl)-3-(1-methyl-2-oxo-2,3-dihydro-1H-benzo[d]imidazol-5-yl)acrylamide] | 6.3 | –
CC1Cc2ccccc2C1NC(=O)/C=C/c1ccc2oc(=O)[nH]c2c1 (centres unmarked) [Example 46, (E)-N-(2-methyl-2,3-dihydro-1H-inden-1-yl)-3-(2-oxo-2,3-dihydrobenzo[d]oxazol-5-yl)acrylamide] | 6.3 | –
Cc1n[nH]c2cc(/C=C/C(=O)NC3c4ccccc4OCC3C)ccc12 (centres unmarked) [Example 52, (E)-3-(3-methyl-1H-indazol-6-yl)-N-(3-methylchroman-4-yl)acrylamide] | 6.9 | –
Cc1n[nH]c2cc(/C=C/C(=O)NC3c4ccccc4CCC3C)ccc12 (centres unmarked) [Example 53, (E)-N-(2-methyl-1,2,3,4-tetrahydronaphthalen-1-yl)-3-(3-methyl-1H-indazol-6-yl)acrylamide] | 6.7 | –
Cc1n[nH]c2cc(/C=C/C(=O)N[C@@H]3CCc4ccccc43)ccc12 [Example 55, (E)-N-(2,3-dihydro-1H-inden-1-yl)-3-(3-methyl-1H-indazol-6-yl)acrylamide] | 7.1 | –
O=C(/C=C/c1ccc2oc(=O)[nH]c2c1)NC1CCOc2ccccc21 (centres unmarked) [Example 56, (E)-N-(chroman-4-yl)-3-(2-oxo-2,3-dihydrobenzo[d]oxazol-5-yl)acrylamide] | 5.8 | –
O=C(/C=C/c1ccc2oc(=O)[nH]c2c1)NC1CCCc2ccccc21 (centres unmarked) [Example 57, (E)-3-(2-oxo-2,3-dihydrobenzo[d]oxazol-5-yl)-N-(1,2,3,4-tetrahydronaphthalen-1-yl)acrylamide] | 5.8 | –
CC1CCc2ccccc2C1NC(=O)/C=C/c1ccc2c(c1)NC(=O)C2 (centres unmarked) [Example 58] | 5.5 | –
O=C(/C=C/c1ccc2c(c1)NC(=O)C2)NC1CCc2ccccc21 (centres unmarked) [Example 59, (E)-N-(2,3-dihydro-1H-inden-1-yl)-3-(2-oxoindolin-6-yl)acrylamide] | 5.5 | –
Cc1c(F)cc(F)cc1NC(=O)/C=C/c1ccc2c(c1)NC(=O)C2 [Example 60, (E)-N-(3,5-difluoro-2-methylphenyl)-3-(2-oxoindolin-6-yl)acrylamide] | 5.7 | –
O=C(/C=C/c1ccc2nn[nH]c2c1F)NC1CCc2ccccc21 (centres unmarked) [Example 61, (E)-N-(2,3-dihydro-1H-inden-1-yl)-3-(7-fluoro-1H-benzo[d][1,2,3]triazol-6-yl)acrylamide] | 5.6 | –
O=C(/C=C/c1cc(F)c2nn[nH]c2c1)NC1CCc2ccccc21 (centres unmarked) [Example 62, (E)-N-(2,3-dihydro-1H-inden-1-yl)-3-(4-fluoro-1H-benzo[d][1,2,3]triazol-6-yl)acrylamide] | 5.6 | –
Cc1ccc(Cl)cc1NC(=O)/C=C/c1ccc2oc(=O)[nH]c2c1 [Example 63, (E)-N-(5-chloro-2-methylphenyl)-3-(2-oxo-2,3-dihydrobenzo[d]oxazol-5-yl)acrylamide] | 4.9 | –
CC1CCCCC1NC(=O)/C=C/c1ccc2c(c1)NC(=O)C2 (centres unmarked) [Example 64, (E)-N-(2-methylcyclohexyl)-3-(2-oxoindolin-6-yl)acrylamide] | 4.9 | –
